Structures can show the parent of a compound that is named as a salt.
Test: in vitro
Conditions: rat, gh3-tre-luc cells, AC50 (uM) modified / 1000

Row | Structure (SMILES) | CC50 at 24 h
1 | CCCC(=O)O[C@]1(C(=O)COC(=O)CC)CC[C@H]2[C@@H]3CCC4=CC(=O)CC[C@]4(C)[C@H]3[C@@H](O)C[C@@]21C [Hydrocortisone buteprate] | > 50 µM
2 | O=C(O)c1ccccc1C(c1ccc(O)cc1)c1ccc(O)cc1 [Phenolphthalin] | > 90 µM
3 | CC1CC[C@@H]2C[C@H]1C2(C)C (stereo partly drawn) [Pinane] | > 90 µM
4 | CO[C@@H]1[C@@H](O[C@@H]2O[C@H](C)[C@@H](O[C@H]3C[C@@](C)(O)[C@@H](OC(=O)CC(C)C)[C@H](C)O3)[C@H](N(C)C)[C@H]2O)[C@@H](CC=O)C[C@@H](C)C(=O)/C=C/[C@@H]2O[C@H]2C[C@@H](C)OC(=O)C[C@H]1OC(C)=O [Carbomycin A] | 34.1 µM
5 | O=C(O)[C@H]1/C(=C/CO)O[C@@H]2CC(=O)N21 [Clavulanate lithium] | > 50 µM
6 | O=C(O)CCCCCCCCCCCBr [12-Bromododecanoic acid] | > 90 µM
7 | CN(C)CCc1c[nH]c2ccccc12 [N,N-Dimethyltryptamine fumarate] | > 100 µM
8 | O=C(Nc1ccc(C(=O)O)c(O)c1)c1ccccc1 [Benzoylpas] | > 50 µM
9 | C=CCN(CC=C)C(=O)C(Cl)Cl [Dichlormid] | > 90 µM
10 | CCOC(=O)[C@H](CCc1ccccc1)N[C@H]1CCc2ccccc2N(CC(=O)O)C1=O [Benazepril hydrochloride] | 5.95 µM
11 | C[C@@H]1[C@H](O)[C@@H](C)/C=C/C=C/CC/C=C/C=C/C=C/C=C/[C@H](O[C@@H]2O[C@H](C)[C@@H](O)[C@H](N)[C@@H]2O)C[C@@H]2O[C@](O)(C[C@@H](O)[C@H](O)CC[C@@H](O)C[C@@H](O)C[C@@H](O)CC(=O)O[C@H]1C)C[C@H](O)[C@H]2C(=O)O [Nystatin] | > 50 µM
12 | N#CC(Cl)Cl [Dichloroacetonitrile] | 72.9 µM
13 | CC(C)(C)C(=O)OCC(=O)[C@H]1CC[C@H]2[C@@H]3CCC4=CC(=O)CC[C@]4(C)[C@H]3CC[C@]12C [Desoxycorticosterone pivalate] | > 50 µM
14 | COC(=O)Nc1nc2ccc(C(=O)c3ccccc3)cc2[nH]1 [Mebendazole] | 0.337 µM
15 | CC[C@@H](C(=O)O)[C@@H]1O[C@@H]([C@@H](C)[C@H](O)[C@H](C)C(=O)[C@H](CC)[C@H]2O[C@]3(C=C[C@@H](O)[C@]4(CC[C@@](C)([C@H]5CC[C@](O)(CC)[C@H](C)O5)O4)O3)[C@H](C)C[C@@H]2C)[C@@H](C)C[C@@H]1C [Narasin] | 0.153 µM
16 | O=C1CCCC1 [Cyclopentanone] | > 90 µM
17 | COC(=O)C1=C(C#N)NC(C)=C(C(=O)OC(C)C)C1c1cccc([N+](=O)[O-])c1 (stereo not drawn) [Nilvadipine] | 27.9 µM
18 | O=C1NC(=O)[C@H]2[C@@H]1[C@@H]1C=C[C@H]2C1 [Noreximide] | > 50 µM
19 | N#CCCCl [3-Chloropropionitrile] | > 90 µM
20 | OCC1(O)OC[C@@H](O)[C@@H](O)[C@@H]1O (stereo partly drawn) [D-Fructose] | > 50 µM
21 | CN(C)C1CSSSC1 [Thiocyclam oxalate] | > 90 µM
22 | CN1C(=O)N(c2ccccc2Br)Cc2cnc(Nc3ccc4c(c3)OCC(CO)O4)nc21 (stereo not drawn) [PharmaGSID_48519] | 37.2 µM
23 | N[C@H](Cc1c[nH]c2ccccc12)C(=O)O [d-Tryptophan] | > 90 µM
24 | CCCCC(CC)COC(=O)C(C#N)=C(c1ccccc1)c1ccccc1 (stereo not drawn) [2-Ethylhexyl-2-cyano-3,3-diphenylacrylate] | > 90 µM

Row | Structure (SMILES) | CC50 at 24 h
25 | O=C(O)c1cc(O)c(O)c(O)c1 [Gallic acid] | 90.1 µM
26 | Nc1cccc2c(N)cccc12 [1,5-Naphthalenediamine] | > 90 µM
27 | COC(F)(F)C(Cl)Cl [Methoxyflurane] | > 50 µM
28 | Cc1ccc(Br)cc1 [4-Bromotoluene] | > 90 µM
29 | CCCCCCCCCCCCCCCCO [1-Hexadecanol] | > 90 µM
30 | CCSC(=O)N1CCCCCC1 [Molinate] | > 90 µM
31 | O=S(=O)(O)c1cccc(S(=O)(=O)O)c1 [Disodium benzene-1,3-disulfonate] | > 90 µM
32 | NCCS [Cysteamine hydrochloride] | > 50 µM
33 | CC(=NO)C(C)=NO [Dimethylglyoxime] | > 90 µM
34 | C[C@H](N[C@@H](CCc1ccccc1)C(=O)O)C(=O)N1CCC[C@H]1C(=O)O [Enalapril acid] | > 50 µM
35 | CC/C=C\CC/C=C/C(OCC)OCC [(2E,6Z)-1,1-diethoxynona-2,6-diene] | > 90 µM
36 | COC(=O)c1c(Cl)c(Cl)c(C(=O)OC)c(Cl)c1Cl [Chlorthal-dimethyl] | > 90 µM
37 | CCCCCCCCCCCl [1-Chlorodecane] | > 90 µM
38 | N=C(N)N [Guanidine carbonate] | > 50 µM
39 | O=C(O)c1cc(Cl)cc([N+](=O)[O-])c1Cl [2,5-Dichloro-3-nitrobenzoic acid] | > 90 µM
40 | CC(C)c1ncc([N+](=O)[O-])n1C [Ipronidazole] | > 50 µM
41 | c1ccc(C[n+]2cccc3ccccc32)cc1 [1-Benzylquinolinium chloride] | > 90 µM
42 | c1ccc(Nc2ccc(Nc3ccccc3)cc2)cc1 [N,N'-Diphenyl-p-phenylenediamine] | 33.3 µM
43 | O=C1CCc2ccccc2O1 [3,4-Dihydrocoumarin] | > 90 µM
44 | Cc1cccc[n+]1[O-] [2-Methylpyridine 1-oxide] | > 90 µM
45 | CCCCOc1ccc(N)cc1 [4-Butyloxyaniline] | > 90 µM
46 | CCSC(=O)N(CC(C)C)CC(C)C [Butylate] | > 90 µM
47 | OC(CN1CCC(Cc2ccc(F)cc2)CC1)c1ccc(Cl)cc1 (stereo not drawn) [Eliprodil] | > 50 µM
48 | CCCCc1ccc2ccccc2c1S(=O)(=O)O [Butylnaphthalenesulfonic acid sodium salt] | > 90 µM

Row | Structure (SMILES) | CC50 at 24 h
49 | C=C(c1ccc(C(=O)O)cc1)c1cc2c(cc1C)C(C)(C)CCC2(C)C [Bexarotene] | 16.1 µM
50 | CCOC(=O)C1=C(C)NC(C)=C(C(=O)OCC)C1c1ccccc1/C=C/C(=O)OC(C)(C)C [Lacidipine] | 11.2 µM
51 | C=C[Si](OC(=C)C)(OC(=C)C)OC(=C)C [Ethenyl[tris(prop-1-en-2-yloxy)]silane] | > 90 µM
52 | NCCCC[C@H](N)C(=O)O [Lysine] | > 50 µM
53 | Nc1ccccc1Nc1ccccc1 [2-Aminodiphenylamine] | 14.7 µM
54 | O=C(O)c1cc2cc(Cc3cccnc3)ccc2o1 [Furegrelate sodium] | > 50 µM
55 | COC(C)=O [Methyl acetate] | > 90 µM
56 | C=CCCCCCCCCC(=O)OCC [Ethyl undec-10-enoate] | > 90 µM
57 | CC(CO)c1ccccc1 (stereo not drawn) [2-Phenylpropan-1-ol] | > 90 µM
58 | CCCC[N+](CCCC)(CCCC)CCCC [Tetrabutylammonium bromide] | > 90 µM
59 | CC(=O)Nc1c(I)c(C(=O)O)c(I)c(N(C)C(C)=O)c1I [Metrizoate sodium] | > 50 µM
60 | COc1cc(C[C@@H](C)N)c(OC)cc1C [R-(-)-2,5-Dimethoxy-4-methylamphetamine hydrochloride] | 41.9 µM
61 | CN[C@@H]1[C@@H](O)[C@@H](O[C@@H]2[C@H](O)[C@H](O[C@H]3OC(CN)=CC[C@H]3N)[C@@H](N)C[C@H]2N)OC[C@]1(C)O [Pentisomicin] | > 50 µM
62 | O=C(O)CCC(=O)c1ccc(-c2ccccc2)cc1 [Fenbufen] | > 20 µM
63 | Cc1ccc2oc(CN(Cc3ccccc3)C(=O)Nc3c(F)cc(F)cc3F)c(-c3ccc(Cl)cc3)c2c1 [FR145237] | > 80 µM
64 | CCCCC/C=C/C/C=C/CCCCCCCC(=O)OCC [Ethyl linoleate] | > 50 µM
65 | CC(C(=O)O)c1ccc(C2CCCCC2)c2ccccc12 (stereo not drawn) [Quadrisol] | > 50 µM
66 | NCC1(CC(=O)O)CCCCC1 [Gabapentin] | > 20 µM
67 | CC(=O)C1CCCCC1=O (stereo not drawn) [Cyclohexanone,2-acetyl-] | > 90 µM
68 | CCCCOC(=O)c1ccccc1C(=O)O [Monobutyl phthalate] | > 90 µM
69 | CC(C)(C)NC[C@H](O)COc1cccc2c1CCCC2=O [Levobunolol hydrochloride] | > 20 µM
70 | CC1COC(Cn2cncn2)(c2ccc(Oc3ccc(Cl)cc3)cc2Cl)O1 (stereo not drawn) [Difenoconazole] | 41.3 µM
71 | CC/C=C\CCOC(=O)C(C)C [(3Z)-Hex-3-en-1-yl 2-methylpropanoate] | > 90 µM
72 | C#CCC1=C(C)C(OC(=O)C2C(C=C(C)C)C2(C)C)CC1=O (stereo not drawn) [Prallethrin] | 66.6 µM

Same assay, conditions: rat, gh3-tre-luc cells, AC50 (uM) modified / 1000, Tox21_110001=Tox21_112871; viability, 1 nM T3 present, 24 h

Row | Structure (SMILES) | CC50 at 24 h
73 | O=C(O)CCCO [Sodium 4-hydroxybutanoate] | > 100 µM

Same assay, conditions: rat, gh3-tre-luc cells, AC50 (uM) modified / 1000, Tox21_110001=Tox21_200456; viability, 1 nM T3 present, 24 h

Row | Structure (SMILES) | CC50 at 24 h
74 | CCCCCCCCCCCCCCCl [1-Chlorotetradecane] | > 90 µM

Same assay, conditions: rat, gh3-tre-luc cells, AC50 (uM) modified / 1000, Tox21_110001=Tox21_200642; viability, 1 nM T3 present, 24 h

Row | Structure (SMILES) | CC50 at 24 h
75 | CC(C)N(C(=O)SC/C(Cl)=C/Cl)C(C)C [Diallate] | 92.9 µM

Same assay, conditions: rat, gh3-tre-luc cells, AC50 (uM) modified / 1000, Tox21_110001=Tox21_201057; viability, 1 nM T3 present, 24 h

Row | Structure (SMILES) | CC50 at 24 h
76 | c1cc2c3c(c1)ccc1cccc(c13)C2 [4H-Cyclopenta(def)phenanthrene] | > 90 µM

Same assay, conditions: rat, gh3-tre-luc cells, AC50 (uM) modified / 1000, Tox21_110001=Tox21_201657; viability, 1 nM T3 present, 24 h

Row | Structure (SMILES) | CC50 at 24 h
77 | COC(=O)c1ccccc1N [Methyl 2-aminobenzoate] | > 90 µM

Same assay, conditions: rat, gh3-tre-luc cells, AC50 (uM) modified / 1000, Tox21_110001=Tox21_201934; viability, 1 nM T3 present, 24 h

Row | Structure (SMILES) | CC50 at 24 h
78 | CCCCSP(=O)(SCCCC)SCCCC [Tribufos] | > 90 µM

Same assay, conditions: rat, gh3-tre-luc cells, AC50 (uM) modified / 1000, Tox21_110001=Tox21_201952; viability, 1 nM T3 present, 24 h

Row | Structure (SMILES) | CC50 at 24 h
79 | CC(O)CN(CC(C)O)CC(C)O (stereo not drawn) [Triisopropanolamine] | > 90 µM

Same assay, conditions: rat, gh3-tre-luc cells, AC50 (uM) modified / 1000, Tox21_110001=Tox21_202983; viability, 1 nM T3 present, 24 h

Row | Structure (SMILES) | CC50 at 24 h
80 | Cc1ccccc1OP(=O)(Oc1ccccc1C)Oc1ccccc1C [Tri-o-cresyl phosphate] | 63.4 µM

Same assay, conditions: rat, gh3-tre-luc cells, AC50 (uM) modified / 1000, Tox21_110001=Tox21_300420; viability, 1 nM T3 present, 24 h

Row | Structure (SMILES) | CC50 at 24 h
81 | O=C(Nc1ccccc1)c1ccccc1I [Benodanil] | > 90 µM
